The values below come from US20050020544A1, “Bicyclic CB2 cannabinoid receptor ligands” (priority 2002, published 2005).

Each structure is given as a SMILES string.

In experiment [1] the test system is IL-1β secretion from activated RAW 264.7 macrophages. Kind of experiment: Inhibition of IL-1β in LPS activated macrophages (ELISA). Type of experiment: cell-based. Conditions: Mus musculus, RAW264.7, 24 h, read-out: inhibition of IL-1β secretion. The method, then: The technique used to quantify the amount of a given protein in a liquid sample, either tissue culture supernatant or body fluid, is based on Enzyme Linked ImmunoSorbent Assay (ELISA) methodology. Either commercially available or established in house, the assay is based on the capture of the protein of interest by specific antibodies bound to the bottom of an ELISA plate well. […] Again the unbound material is washed away, the samples are then incubated with the appropriate substrate yielding a calorimetric reaction. The reaction is stopped and reading is performed in a spectrophotometer at the appropriate wavelength. Samples are tested at least in duplicate and the appropriate standard curve, consisting of serial dilutions of the recombinant target protein, is incorporated on each plate. Concentration of the protein in the sample is calculated from the standard curve.
RAW 264.7 macrophages, a mouse cell line (ATCC # TIB-71), were grown in Dulbecco's modified Eagle's medium (DMEM) with 4 mM L-glutamine adjusted to contain 1.5 g/L sodium bicarbonate, 4.5 g/L glucose, and 10% heat inactivated fetal bovine serum. Cells were grown in tissue culture flasks and seeded at appropriate density into 24 wells tissue culture plates. 0.5×10^6 Raw cells in one milliliter were stimulated with 2 μg/ml Lipopolysaccharide E. coli 055:B5 (DIFCO Laboratories). The mouse macrophages were pre-treated for one hour with controls or 10 μM of bicyclic CB2 ligands and later on activated with LPS. Dexamethasone was used as a positive control at 50 nM. Supernatant was collected 4 hours (for PGE2) and 24 hours (for IL-1β and TNF-α) after activation, and the levels of the inflammatory agent under study were determined by ELISA, as previously described. Inhibition was calculated versus vehicle treated cells.

Another experiment deals with T1, human CB1 receptor (Homo sapiens, UniProt P21554).
T1 construct: purchased Perkin Elmer/NEN; host or cells: HEK-293 cells, stably transfected (membranes)
Kind of experiment: Adenylylcyclase assay: forskolin-activated cAMP in CB1 transfected HEK-293 cells. Type of experiment: cell-based. The method, then:
Cannabinoids and derivatives bind to G-protein-coupled CB1 and CB2 receptors and exert their activity via the inhibition of adenylylcyclase activity. An adenylylcyclase assay forms a basis for the functional analysis of the compounds by determining their capacity to inhibit or promote forskolin-activated cAMP production. The assay is carried out according to Chin et al. (Chin, C. N. et al., J. Neurochem. 70: 366-73, 1998). Briefly, HEK-293 human kidney cells (ATCC#CRL-1573) stably transfected with either the human CB1 or CB2 receptor (cDNA) were grown in DMEM supplemented with 10% fetal calf serum, 1% Penicillin-Streptomycin and 2 mM L-glutamine. Cells were seeded in 24 wells plate at 5×10^4 cells/well and incubated for 48 hours. Medium was then removed and the adherent cells were washed with PBS. Two hundred μl of serum free medium supplemented with 0.2 mM Ro 20-1724, 0.25% BSA, and 20 mM HEPES was then added to each well. The cells were then activated with 1 μM forskolin in presence of the bicyclic test compounds in concentrations ranging from 10 pM up to 1 μM. The activated cells were then incubated at 37° C. for 20 minutes and the reaction terminated with 1.2 M HCl to a final concentration of 0.1 M. Cells were lyzed by freeze and thaw and the lysate was neutralized with 2 M HEPES, pH 7.5. cAMP was measured in 50 μl aliquots using the [^3H]-cAMP assay system (Amersham).
This experiment was first performed on CB2 receptor transfected cells.

Another experiment deals with C57/BL male mice. Kind of experiment: MPTP model for Parkinson's disease, TH immunoreactivity in SNpc. Format: in vivo, mouse. The settings on record: 20 mg/kg i.p., once before first MPTP, day 7. The method, then: The mice (C57/BL male mice, average weight 30 g, Harlan, Israel) were administered i.p. with 4 injections of MPTP (Sigma, USA) (20 mg/kg, 5 ml/kg) in saline (Teva Medical Israel) at 2 hours interval on day 1. The treatment groups, including: (a) Saline, untreated, (b) MPTP, untreated, (c) Vehicle (1:20of CREMOPHOR EL®:ethanol), 5 ml/kg i.p., and (d) test compounds, were administered i.p. once just before the first MPTP administration. Seven days following the MPTP treatment the animals were sacrificed (by i.p. administration of pentobarbitone sodium CTS Israel 100 mg/kg) and their brains removed for tyrosine hydroxylase (TH) detection using immunohistochemistry technique.
Brains were fixed by cardiac perfusion with 4% Paraformaldehyde followed by immersion of the brain in the same fixative for at least 72 hours. Then brains were washed with PBS and transferred to 30% sucrose in PBS until they sank. After the brains sink in the sucrose, they were frozen using the cryostat special fast freezing (−60° C.). […] Quantitative analysis was performed by counting of immunoreactive (IR) cells at the widest dimension of the SNpc lateral to the roots of the third cranial nerve separating medial and lateral SN at the level of interpreduncular nucleus. The amount of the labeling at the striatum level was evaluated using computerized image analysis system.
All data are expressed as mean±SD. […]

T1 sequence (P21554 whole entry): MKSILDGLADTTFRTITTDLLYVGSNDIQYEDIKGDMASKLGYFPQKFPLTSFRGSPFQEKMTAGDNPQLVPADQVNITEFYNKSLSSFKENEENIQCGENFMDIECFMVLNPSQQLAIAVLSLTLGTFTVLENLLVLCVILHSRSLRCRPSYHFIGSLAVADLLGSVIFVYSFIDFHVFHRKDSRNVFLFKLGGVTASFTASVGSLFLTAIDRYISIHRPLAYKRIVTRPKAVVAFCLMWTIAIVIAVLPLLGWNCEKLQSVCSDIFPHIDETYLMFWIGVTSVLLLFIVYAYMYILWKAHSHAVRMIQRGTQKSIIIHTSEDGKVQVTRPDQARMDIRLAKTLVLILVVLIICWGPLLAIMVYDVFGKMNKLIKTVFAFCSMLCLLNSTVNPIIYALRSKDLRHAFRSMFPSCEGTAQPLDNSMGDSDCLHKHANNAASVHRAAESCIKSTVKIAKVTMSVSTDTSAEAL

For the compound `CCCCCCC(C)(C)c1cc(O)c(C2CC(=O)C3CC2C3(C)C)c(O)c1` (single isomer, unassigned; (-)) [Compound A, (−)-4-[4-(1,1-Dimethyl-heptyl)2,6-dihydroxy-phenyl]-6,6-dimethyl-bicyclo[3.1.1)heptan-2-one], in experiment [1], the inhibition at 10 µM turned out to be 76%. This compound showed a concentration for half-maximal inhibition (IC50) at human CB1 receptor of 10.3 nM. Also, the inhibition at 1 µM on human CB1 receptor (HEK293, CB1 transfected HEK-293, 1 μM forskolin, read-out: maximal inhibition at 1 μM) is 69%.
Turning to `CCCCCCC(C)(C)c1cc(OC)c(C2C=C(CO)C3CC2C3(C)C)c(OC)c1` (single isomer, unassigned; (+)) [HU-308, (+) {4-[4-(1,1-dimethylheptyl)-2,6-dimethoxy-phenyl]-6,6-dimethyl-bicyclo[3.1.1]hept-2-en-2-yl}-methanol, reference compound], the “SN dopaminergic (TH-IR) cells rescued from MPTP toxicity” value in the experiment with C57/BL male mice is “about 43%”.

In general, inhibition refers to the share of the control response that was lost under treatment. The term IC50 denotes the concentration needed to halve the response being measured. The low end stands for greater potency in that assay, the high end for weaker potency in that assay.
